± gives the expanded uncertainty stated by the source.
Experiments:
[1] = refractive index (Na D-line) (dimensionless); conditions: 298.15 K; 101.33 kPa; Liquid; Standard Abbe refractometry
[2] = 298.15 K; 101.33 kPa; Liquid; Vibrating tube method
[3] = wn = mass fraction of the nth substance listed; conditions: 298.15 K, 101 kPa, Liquid, Vibrating tube method

Row | Compound | refractive index [1] | mass density [2] [kg/m3] | mass density ([3]; w1 = 0.0115) [kg/m3] | mass density ([3]; w1 = 0.05) [kg/m3] | mass density ([3]; w1 = 0.101) [kg/m3] | mass density ([3]; w1 = 0.2011) [kg/m3] | mass density ([3]; w1 = 0.3051) [kg/m3] | mass density ([3]; w1 = 0.3993) [kg/m3]
1 | CCCC(=O)[O-].[NH3+]CCO [2-hydroxy ethylammonium butanoate] | 1.4659 ± 0.0009 | 1075.12 ± 6.3 | – | – | – | – | – | –
2 | CCCC(=O)[O-].[NH3+]CCO [2-hydroxy ethylammonium butanoate] + O | – | – | 999.43 ± 2.2 | 1006.63 ± 8.8 | 1016.39 ± 11 | 1033.12 ± 8.9 | 1046.73 ± 7.6 | 1058.12 ± 7.3

Reference: the NIST ThermoML archive (doi:10.1021/acs.jced.7b00278)
